{"source": "paper PMC5478271", "about": "“Chemical structure-guided design of dynapyrazoles, cell-permeable dynein inhibitors with a unique mode of action” (eLife, 2017)", "key": {"[1]": {"test_system": "IMCD3 cells stably expressing mNeonGreen-IFT88", "experiment": "Intraflagellar transport assay (mNeonGreen-IFT88 particles in primary cilia)", "type": "cell-based, murine", "text": "To quantitatively assess the effect of dynapyrazole-A treatment on intraflagellar transport, we analyzed time-lapse images of cilia using KymographDirect, an automated analysis algorithm that extracts particle velocities from kymographs ([Mangeol et al., 2016]). […] Under control conditions (0.3% DMSO, Figure 4B), anterograde particles moved with a speed of 694 ± 117 nm/s (Figure 4D and F, mean ± S.D., 429 particles, 38 cilia) and retrograde particles moved at 421 ± 156 nm/s (Figure 4D and F, 244 particles, 38 cilia), consistent with previous studies ([Ye et al., 2013]). […] After 10 min of treatment, reductions in velocities were similar to those at the 5 min time point (Figure 4—figure supplement 1). Treatment of cilia with a higher dynapyrazole-A concentration (10 µM) slowed both retrograde- and anterograde-directed motion (Figure 4—figure supplement 2). […] We note that dynapyrazole-A, at concentrations close to the IC50 for inhibiting microtubule gliding in vitro, alters intraflagellar transport in a manner similar to what has been observed following dynein 2 loss-of-function in Chlamydomonas ([Engel et al., 2012]).\nMurine inner medullary collecting duct (IMCD3) cells stably expressing mNeonGreen-IFT88 were maintained in DMEM/F12 supplemented with 10% FBS. Cells were typically passaged fewer than 10 times following thawing of frozen stocks. Cells were described previously ([Ye et al., 2013]). 6 × 10^5 cells were seeded onto 22-mm coverslips in a six well plate and incubated for 24 hr at 37°C. The media was then replaced with DMEM/F12 +0.2% FBS and cells were incubated 24 hr to promote cilium formation. Immediately prior to imaging, media was replaced with phenol red-free media (Leibovitz's L-15 + 0.2% FBS) containing either carrier solvent control (0.3% DMSO) or compound. IFT88 transport was observed using a TE2000-E spinning disk confocal microscope (Nikon PlanApo 100x/1.45 objective lens) fitted with a Photometrics Cascade II (EMCCD 512) camera and imaged at a frame rate of 2 frames/s. Kymographs were generated in FIJI using KymographClear and the velocities of mNeonGreen-IFT88 foci movement were quantified by KymographDirect ([Mangeol et al., 2016]). The algorithm used to identify IFT88 foci could identify particles with velocitities ≥ 25nm/s as moving particles.\nFor washout experiments, cells were exposed to a 5-min compound treatment as described above. Cells were then washed twice with 5 mL of L-15 supplemented with 10% FBSand 0.3% DMSO. A 5-min incubation followed each wash. Imaging was performed as described above immediately after the second 5-min wash and incubation step had been completed. For washout experiments shown in Figure 4—figure supplement 3, wash steps were performed with either L-15 supplemented with 10% FBS or L-15 supplemented with 0.2% FBS. Following washout of compound, cells were incubated at 37° for 60-min and then imaged.\nStatistical analysis of intraflagellar transport frequencies: Run frequencies output directly from KymographDirect were tabulated across all cilia imaged in a given condition (see Figure 4—figure supplement 2). For each of two experimental conditions (5 µM 8, 10 µM 8) and the respective controls, an un-paired T-test was performed for the difference of means control and compound treatment. This analysis was performed for each direction of motion."}, "His-dynein 1": {"biological_target": "T1, His-dynein 1 (Homo sapiens, UniProt Q14204)", "T1 construct": "(wild-type, K1912A, K2601A, AA 1320–4646, uniprot: Q14204); made in house; host or cells: Sf9 insect cells (baculovirus)", "T1 sequence (Q14204 1320-4646)": "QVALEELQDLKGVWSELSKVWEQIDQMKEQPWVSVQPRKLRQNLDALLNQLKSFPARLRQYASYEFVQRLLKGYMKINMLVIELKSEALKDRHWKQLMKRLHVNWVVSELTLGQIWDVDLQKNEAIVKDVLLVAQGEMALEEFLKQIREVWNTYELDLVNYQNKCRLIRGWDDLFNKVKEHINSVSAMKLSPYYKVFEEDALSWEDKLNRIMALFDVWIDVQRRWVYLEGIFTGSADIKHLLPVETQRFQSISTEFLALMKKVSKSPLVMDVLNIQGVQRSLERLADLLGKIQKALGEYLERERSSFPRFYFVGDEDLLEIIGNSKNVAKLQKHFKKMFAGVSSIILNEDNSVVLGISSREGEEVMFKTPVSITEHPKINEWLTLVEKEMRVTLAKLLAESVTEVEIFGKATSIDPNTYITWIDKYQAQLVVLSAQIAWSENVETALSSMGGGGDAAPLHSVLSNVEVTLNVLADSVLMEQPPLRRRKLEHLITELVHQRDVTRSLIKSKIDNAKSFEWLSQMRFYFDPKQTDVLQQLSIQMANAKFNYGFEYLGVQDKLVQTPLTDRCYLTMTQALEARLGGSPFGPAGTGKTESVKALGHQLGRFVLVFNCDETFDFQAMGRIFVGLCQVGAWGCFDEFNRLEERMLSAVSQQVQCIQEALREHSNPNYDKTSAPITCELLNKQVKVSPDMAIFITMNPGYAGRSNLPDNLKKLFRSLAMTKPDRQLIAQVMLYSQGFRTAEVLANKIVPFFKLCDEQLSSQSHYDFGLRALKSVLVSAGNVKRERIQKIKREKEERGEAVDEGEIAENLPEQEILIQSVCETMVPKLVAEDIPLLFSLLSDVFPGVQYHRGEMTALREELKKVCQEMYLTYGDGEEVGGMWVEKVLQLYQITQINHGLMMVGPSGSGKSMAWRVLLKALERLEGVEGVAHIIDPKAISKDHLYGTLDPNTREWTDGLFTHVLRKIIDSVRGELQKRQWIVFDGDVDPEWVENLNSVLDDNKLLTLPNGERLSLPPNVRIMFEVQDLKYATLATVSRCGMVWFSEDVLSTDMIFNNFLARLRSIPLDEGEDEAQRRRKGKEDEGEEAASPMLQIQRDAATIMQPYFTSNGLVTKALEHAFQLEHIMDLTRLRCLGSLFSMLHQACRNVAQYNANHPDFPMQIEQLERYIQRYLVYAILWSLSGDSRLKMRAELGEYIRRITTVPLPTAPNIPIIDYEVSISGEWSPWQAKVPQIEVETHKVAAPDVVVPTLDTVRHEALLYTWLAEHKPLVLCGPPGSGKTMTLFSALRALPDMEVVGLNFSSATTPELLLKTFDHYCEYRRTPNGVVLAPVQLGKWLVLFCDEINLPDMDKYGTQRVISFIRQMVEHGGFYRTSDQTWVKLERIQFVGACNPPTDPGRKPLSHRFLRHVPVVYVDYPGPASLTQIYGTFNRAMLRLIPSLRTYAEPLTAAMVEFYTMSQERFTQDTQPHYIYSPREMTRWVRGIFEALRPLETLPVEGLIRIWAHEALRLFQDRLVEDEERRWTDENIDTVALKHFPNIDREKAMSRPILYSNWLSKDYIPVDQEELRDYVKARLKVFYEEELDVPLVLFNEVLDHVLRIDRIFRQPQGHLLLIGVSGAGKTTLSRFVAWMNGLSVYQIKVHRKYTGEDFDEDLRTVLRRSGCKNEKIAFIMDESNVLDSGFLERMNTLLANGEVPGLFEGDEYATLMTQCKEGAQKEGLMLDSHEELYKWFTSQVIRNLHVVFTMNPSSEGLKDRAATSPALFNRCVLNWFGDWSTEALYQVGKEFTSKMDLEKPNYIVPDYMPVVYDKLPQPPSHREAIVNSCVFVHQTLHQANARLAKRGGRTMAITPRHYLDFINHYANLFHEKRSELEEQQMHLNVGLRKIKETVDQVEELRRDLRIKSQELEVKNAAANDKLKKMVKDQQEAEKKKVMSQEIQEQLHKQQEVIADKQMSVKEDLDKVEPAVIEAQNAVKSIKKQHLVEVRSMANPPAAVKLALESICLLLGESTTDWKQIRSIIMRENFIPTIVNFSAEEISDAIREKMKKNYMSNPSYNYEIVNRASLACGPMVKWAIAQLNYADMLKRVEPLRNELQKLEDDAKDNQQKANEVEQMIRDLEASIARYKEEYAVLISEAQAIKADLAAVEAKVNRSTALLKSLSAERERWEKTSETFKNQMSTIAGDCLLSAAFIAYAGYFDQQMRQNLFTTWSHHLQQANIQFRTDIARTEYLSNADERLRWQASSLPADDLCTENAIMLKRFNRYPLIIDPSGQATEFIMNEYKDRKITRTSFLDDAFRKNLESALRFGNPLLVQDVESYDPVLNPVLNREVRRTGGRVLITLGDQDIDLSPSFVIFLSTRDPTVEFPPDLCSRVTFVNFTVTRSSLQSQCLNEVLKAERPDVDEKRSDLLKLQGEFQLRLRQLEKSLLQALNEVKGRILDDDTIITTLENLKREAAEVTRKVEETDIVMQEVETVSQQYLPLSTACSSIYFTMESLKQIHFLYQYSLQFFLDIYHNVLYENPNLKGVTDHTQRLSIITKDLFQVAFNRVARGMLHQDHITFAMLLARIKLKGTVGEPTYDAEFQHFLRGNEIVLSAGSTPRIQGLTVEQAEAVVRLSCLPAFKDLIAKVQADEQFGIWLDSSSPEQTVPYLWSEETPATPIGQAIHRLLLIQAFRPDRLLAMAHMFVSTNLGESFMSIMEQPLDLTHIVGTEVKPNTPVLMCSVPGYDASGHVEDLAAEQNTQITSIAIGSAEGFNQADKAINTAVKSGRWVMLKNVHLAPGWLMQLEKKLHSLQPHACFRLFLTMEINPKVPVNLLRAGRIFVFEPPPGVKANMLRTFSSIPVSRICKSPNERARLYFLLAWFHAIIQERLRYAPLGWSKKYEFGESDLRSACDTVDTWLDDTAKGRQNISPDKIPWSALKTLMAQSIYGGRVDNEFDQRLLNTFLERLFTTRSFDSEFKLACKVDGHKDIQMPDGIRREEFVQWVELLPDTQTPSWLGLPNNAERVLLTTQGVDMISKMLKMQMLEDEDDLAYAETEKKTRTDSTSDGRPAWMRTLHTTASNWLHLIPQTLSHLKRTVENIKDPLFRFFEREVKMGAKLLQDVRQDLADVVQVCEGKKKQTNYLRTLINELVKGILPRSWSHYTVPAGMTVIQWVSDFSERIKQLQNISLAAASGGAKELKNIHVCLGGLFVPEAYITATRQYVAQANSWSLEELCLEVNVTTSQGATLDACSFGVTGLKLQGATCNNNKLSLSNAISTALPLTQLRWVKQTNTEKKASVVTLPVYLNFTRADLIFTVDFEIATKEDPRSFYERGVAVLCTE", "experiment": "Ultraviolet light and ADP-vanadate-dependent photocleavage of dynein", "type": "biochemical", "settings": "4 µM compound", "method": "Thirty-microliter reactions were prepared in 96-well plates as follows. ATPase buffer was supplemented with concentrated stocks of His-dynein 1 (90nM final), compound 8 (4µM final) or an equivalent amount of solvent carrier (3.3% DMSO), followed by a 10 min incubation at room temperature. ATP (0.1 mM final) was added and the mixtures were incubated 5 min at room temperature. NaVO3 (0.1 mM final) was added and the mixtures were again incubated 5 min at room temperature. Vanadate was deliberately omitted from one well. The plate was then transferred to ice and irradiated with 365 nm light for 15 min with the lamp positioned 10 cm above the plate(Spectroline Maxima ML-3500S lamp). Following addition of SDS-PAGE loading buffer and heating (95°, 5 min), individual reactions were resolved on hand-poured 8% tris-glycine polyacrylamide gels. Gels were stained (Coomassie blue), imaged using a Li-Cor Odyssey, and band intensities were analyzed using FIJI.\nQuantification of ADP-vanadate dependent photocleavage of dynein was performed as follows: Scanned gels were analyzed with FIJI, and fraction cleaved quantified as follows:\nFraction cleaved = (intensity of band at 250 kDa) /\n(intensity of band at 250 kDa + intensity of band at ~350 kDa)"}, "[2]": {"settings": "5 µM 5 min, then washout 10 min in 10% FBS, 0.3% DMSO"}, "[3]": {"settings": "5 µM, then 0.2% FBS washout for 1 hr"}, "[4]": {"settings": "5 µM, then 10% FBS washout for 1 hr"}}}
{"smiles": "N#Cc1c(C2(c3ccc(Cl)cc3)CC2)nn2c1[nH]c(=O)c1cc(I)ccc12", "note": "[Compound 8, 2-[1-(4-chlorophenyl)cyclopropyl]-7-iodo-5-oxo-4H-pyrazolo[1,5-a]quinazoline-3-carbonitrile]", "values": [{"measurement": "Fa, anterograde frequency after washout", "setting": "[1]; [2]", "result": "14.2 ± 6", "unit": "counts/minute"}, {"measurement": "Fr, retrograde frequency after washout", "setting": "[1]; [2]", "result": "9.6 ± 7", "unit": "counts/minute"}, {"measurement": "Va, anterograde velocity after washout", "setting": "[1]; [2]", "result": "697 ± 149", "unit": "nm/s"}, {"measurement": "Vr, retrograde velocity after washout", "setting": "[1]; [2]", "result": "467 ± 136", "unit": "nm/s"}, {"measurement": "Reduction of anterograde particle velocities", "setting": "[1]; 5 µM, 5 min, versus DMSO control", "result": "~ 18%"}, {"measurement": "Fr, retrograde frequency", "setting": "[1]; 5 µM, 5 min, DMSO control 6.5 ± 4", "result": "4.1 ± 3", "unit": "counts/minute"}, {"measurement": "Fa, anterograde frequency", "setting": "[1]; 5 µM, 5 min, DMSO control 11.3 ± 3", "result": "8.5 ± 5", "unit": "counts/minute"}, {"measurement": "Vr, retrograde velocity", "setting": "[1]; 5 µM, 5 min, DMSO control 421 ± 156", "result": "156 ± 107", "unit": "nm/s"}, {"measurement": "Va, anterograde velocity", "setting": "[1]; 5 µM, 5 min, DMSO control 694 ± 117", "result": "566 ± 116", "unit": "nm/s"}, {"measurement": "Fr, retrograde frequency", "setting": "[1]; 5 µM, 10 min, DMSO control 5.9 ± 3", "result": "4.2 ± 3", "unit": "counts/minute"}, {"measurement": "Fa, anterograde frequency", "setting": "[1]; 5 µM, 10 min, DMSO control 10.2 ± 3", "result": "6.9 ± 4", "unit": "counts/minute"}, {"measurement": "Vr, retrograde velocity", "setting": "[1]; 5 µM, 10 min, DMSO control 354 ± 134", "result": "202 ± 180", "unit": "nm/s"}, {"measurement": "Va, anterograde velocity", "setting": "[1]; 5 µM, 10 min, DMSO control 655 ± 124", "result": "572 ± 121", "unit": "nm/s"}, {"measurement": "Fa, anterograde frequency after low-serum washout", "setting": "[1]; [3]", "result": "10.1 ± 4", "unit": "counts/minute"}, {"measurement": "Fr, retrograde frequency after low-serum washout", "setting": "[1]; [3]", "result": "5.2 ± 2", "unit": "counts/minute"}, {"measurement": "Va, anterograde velocity after low-serum washout", "setting": "[1]; [3]", "result": "620 ± 134", "unit": "nm/s"}, {"measurement": "Vr, retrograde velocity after low-serum washout", "setting": "[1]; [3]", "result": "219 ± 117", "unit": "nm/s"}, {"measurement": "Fa, anterograde frequency after high-serum washout", "setting": "[1]; [4]", "result": "18.8 ± 5", "unit": "counts/minute"}, {"measurement": "Fr, retrograde frequency after high-serum washout", "setting": "[1]; [4]", "result": "12.4 ± 6", "unit": "counts/minute"}, {"measurement": "Va, anterograde velocity after high-serum washout", "setting": "[1]; [4]", "result": "660 ± 112", "unit": "nm/s"}, {"measurement": "Vr, retrograde velocity after high-serum washout", "setting": "[1]; [4]", "result": "441 ± 156", "unit": "nm/s"}, {"measurement": "Fa, anterograde frequency", "setting": "[1]; 10 µM", "result": "6.8 ± 4", "unit": "counts/minute"}, {"measurement": "Fr, retrograde frequency", "setting": "[1]; 10 µM", "result": "4.0 ± 2", "unit": "counts/minute"}, {"measurement": "Va, anterograde velocity", "setting": "[1]; 10 µM", "result": "466 ± 183", "unit": "nm/s"}, {"measurement": "Vr, retrograde velocity", "setting": "[1]; 10 µM", "result": "121 ± 78", "unit": "nm/s"}, {"measurement": "Reduction of ADP-vanadate dependent photocleavage relative to controls", "setting": "His-dynein 1", "result": "~ 2.5 fold"}, {"measurement": "ADP-vanadate dependent photocleavage of His-dynein 1", "setting": "His-dynein 1; 100 µM ATP, 100 µM vanadate, control 42 ± 3%", "result": "17 ± 2", "unit": "%"}]}
